Measurements taken from patent US6133313A, “Insecticidal avocadofurans and triolein” (The Regents of the University of California, priority 1998, dated 2000).
“Also recorded” adds a separate entry of the source.

What was measured:
Assay type in all cases: in vivo, Spodoptera exigua
[1] = test system: S. exigua; assay: synergistic/joint toxicity of avocadofuran and triolein combinations
Source text: The treatments were as follows: Control, 2-(pentadecyl)furan, 2-(heptadecyl)furan, triolein, individually, and 2-(pentadecyl)furan combined with 2-(heptadecyl)furan and triolein, 2-(pentadecyl)furan combined with triolein, and 2-(heptadecyl)furan combined with triolein. Because the combined LC25 s for both avocadofurans exceed their LC50 values, a concentration for each was adjusted so that when added it would approximate the value of the avocadofurans LC50 (see Table 2). These concentrations were used whenever both avocadofurans were combined in the same treatment. Treatments were replicated four times, with 15 larvae per replicate to a total of 60 larvae/treatment.
Joint effects were determined by testing all combinations of LC25 s (estimated from probit lines shown in Table 1) of the three compounds for toxicity to S. exigua. The treatments were: control, 2-(pentadecyl)furan, 2-(heptadecyl)furan, triolein, 2-(pentadecyl)furan+triolein, 2-(heptadecyl)furan+triolein, and 2-(pentadecyl)furan+2-(heptadecyl)furan+triolein. Because the combined LC25 s for both avocadofurans exceeded their LC50 values (due to a steep slope of their LC lines), a concentration for each was used so that when added together it would approximate the value of the avocadofurans LC50 (Table 1). These concentrations were used whenever both avocadofurans were combined in the same treatment.
Treatments were replicated four times, with 15 larvae per replicate (total of 60 larvae/treatment). Dietary treatment preparations and bioassay procedures were conducted as described in Example 4. For each diet treatment, 9-d larval instar and weight, pupal weights, times to pupation, and larval mortality were recorded.

[2] = test system: neonate S. exigua; assay: individual toxicity of avocadofurans and triolein in artificial diet; settings: for LC50 (95% FL): in diet
Method: In this study, individual activity of avocadofurans was investigated quantitatively. For this purpose, eight concentrations of the avocadofurans (1) and (4) and triolein (8) were tested. Results are seen in FIG. 6.
Following pilot studies, eight concentrations of each were tested: 0, 0.5, 1, 1.5, 2, 2.5, 3, and 3.5 μmoles g^~1 diet. Also, five concentrations of triolein were tested: 0; 1,000; 2,000; 3,000; and 4,000 μg g^~1 diet. Because triolein was not compared to a structurally similar compound, a more standard dietary formulation of μg g-^1 was used rather than ^~ moles g^-1 in all triolein-treated bioassays.
Treated and control diet were prepared as described above. For each concentration the compounds were dissolved in 10 ml of Tween solution and mixed using an ultrasonic homogenizer. Untreated diet was added to make a total of 100 g and then vortexed for 3 mm. Control diet was prepared by mixing 10 ml of the Tween solution with 90 g of artificial diet to produce a final weight of 100 g. Control and treated diets were poured into 30 ml plastic cups. One neonate was placed in each cup and cups were held in an incubator. Fifteen larvae were tested at each concentration, and assays were replicated 4 times (total of 60 larvae/treatment). For each diet treatment, 9-d larval instar and weight, pupal weights, times to pupation, and larval mortality were recorded.
(§1) EC (effective concentration) values were calculated by subtracting the mean larval weight for each treatment from the mean weight of the controls, and dividing by the mean weight of the controls. LC (lethal concentration) values were obtained using probit analysis as described in Probit Analysis (1971) Cambridge University Press, Cambridge, UK. GI (growth index) and RGI (relative growth index) values were calculated as described in J. Chem. Ecol., 19:1109 (1993), but using an imax of 3 (the stage attained by most control larvae after 7 d). Statistical comparisons were conducted using SuperAnova Abacus Concept Inc., Berkeley, Calif. (1989).

[3] = test system: S. exigua larvae; assay: growth inhibition and mortality of synthetic avocadofurans and triolein in diet bioassay; settings: for 7-d Instar / 7-d Larval Weight: mean ± SE
Method: S. exigua larvae were used in all experiments. Larvae were reared on artificial diet modified from U.S.D.A. Agric. Res. Serv., Prod. Res. Rep., 1208:1 (1969), and maintained at 28+2° C., 14:10; light:dark (L:D) photoperiod.
The colony was collected from Orange Co., Calif. and had new genetic material added within 12 months prior to the study. The age of the cohorts tested was standardized by using neonates within 12 hours of eclosion. All bioassays were maintained at 28+2° C. 75% relative humidity (RH), and at 14:10 (L:D) photoperiod with fluorescent lighting.
The insecticidal activity of the fractions was tested with artificial diet bioassays. Treated diets were prepared by transferring 750 μl of acetone solutions of each fraction (equivalent to 300 mg crude idioblast cell oil) into 50-ml polypropylene centrifuge tubes (Fisher, Pittsburgh Pa.), evaporating the acetone, adding 2 ml of 0.1% Tween-80 solution (Fisher), homogenizing with an ultrasonic homogenizer (Co le-Parmer, Chicago Ill.), and adding prepared diet to produce a final weight of 15 g containing the equivalent of 2% idioblast oil. The mixture was vortexed for 3 mm.
Control diet was prepared by mixing 2 ml of Tween solution and 13 g of artificial diet to produce a final weight of 15 g. Control and treated diets were poured into 24-well (15.9 mm diameter and 15.9 mm depth) bioassay trays (C-D International Inc., Pitman N.J.). One neonate was added per well, and trays were placed in an incubator under the previously described conditions. Twenty-four neonates were tested for each fraction and control. Mortality and larval weights were recorded after 7 days.
The effect of the synthetically produced avocado furan compounds (>95% purity) and commercially available triolein (Sigma, St. Louis, Mo.) were tested on larval growth and mortality of S exigua. Treated and control diet were prepared as previously described.
Six different compound concentrations, chosen on the basis of studies with the oil fractions, were evaluated for both 2-(pentadecyl)furan and 2-(heptadecyl)furan: 0 (control), 600, 750, 900, 1050, and 1200 μg/g. Also, six concentrations of triolein (subfraction 1-1-12) were tested: 0 (control), 7000, 8000, 9000, 10000, and 11000 μg/g.
Twenty-four neonates were used per treatment. Bioassays were conducted as described in Example 4, and replicated 4 times for each concentration (i.e., a total of 96 larvae were tested for each concentration). Larval weight, instar, and mortality were recorded after 7 days […].
as §1

[4] = Spodoptera exigua, feed or water, 168 h

Q: Which results are given for `CCCCCCCC/C=C\CCCCCCCC(=O)OCC(COC(=O)CCCCCCC/C=C\CCCCCCCC)OC(=O)CCCCCCC/C=C\CCCCCCCC` [Triolein (8), triolein]?
A: Survival to pupation ([1]; in vivo): 83.3%; Weight, 9-d larvae ([1]; mean ± spread): 111.8 ± 10.3 mg; Weight, Pupae ([1]; mean ± spread): 116.4 ± 3.7 mg; Developmental times ([1]; neonate-pupa, in d (unit assumed)): 15.3 ± 0.4; Mortality (%) using LC25 ([1]; single substance, at estimated LC25): 16.7%; reduction of 9-d larval weight (FIG. 6B) ([2]; 2,000 μg g^-1 or higher): more than 35%; comparative toxic and inhibitory effect ([2]; in words): inhibitory at concentrations much higher than either of the avocadofurans tested in this assay; effect on larval mortality (FIG. 9) ([2]; in words): increases larval mortality; effect on pupal weight (FIG. 7) ([2]; in words): no effect on larval developmental time and pupal weight; larval developmental time from neonate to pupa (FIG. 8) ([2]; in words): not significantly prolonged; also recorded: no effect on larval developmental time; Relative Growth Index (RGI) (FIG. 10) ([2]; in words, increasing concentrations): decreased with increasing concentrations; concentration significantly reducing 9-d weight (FIG. 6B) ([2]; lowest concentration vs controls): ≥ 2,000 μg g^-1; LC25 (95% FL) ([2]; triolein, larval stage): 1,900(1,304-2,339) μg g^-1 of diet; LC50 (95% FL) ([2]; triolein, larval stage, listed as Triolein): 3,631(2,979-5,203) μg g^-1; LC50 (95% FL) ([2]; triolein, larval stage, listed as triolein): 3,631 μg g^-1; EC (effective concentration; weight reduction vs control) ([3]; 7000 μg/g): 65.43%; GI (growth index) ([3]; 7000 μg/g): 0.64; 7-d Instar ([3]; 7000 μg/g): 2.35 ± 0.08; 7-d Larval Weight ([3]; 7000 μg/g): 10.84 ± 1.42 mg; EC (effective concentration; weight reduction vs control) ([3]; 8000 μg/g): 43.64%; GI (growth index) ([3]; 8000 μg/g): 0.67; 7-d Instar ([3]; 8000 μg/g): 2.70 ± 0.10; 7-d Larval Weight ([3]; 8000 μg/g): 17.67 ± 2.05 mg; EC (effective concentration; weight reduction vs control) ([3]; 9000 μg/g): 84.44%; GI (growth index) ([3]; 9000 μg/g): 0.39; 7-d Instar ([3]; 9000 μg/g): 1.91 ± 0.08; 7-d Larval Weight ([3]; 9000 μg/g): 4.88 ± 0.65 mg; EC (effective concentration; weight reduction vs control) ([3]; 10000 μg/g): 81.52%; GI (growth index) ([3]; 10000 μg/g): 0.37; 7-d Instar ([3]; 10000 μg/g): 1.87 ± 0.10; 7-d Larval Weight ([3]; 10000 μg/g): 5.79 ± 0.96 mg; EC (effective concentration; weight reduction vs control) ([3]; 11000 μg/g): 71.85%; GI (growth index) ([3]; 11000 μg/g): 0.28; 7-d Instar ([3]; 11000 μg/g): 1.95 ± 0.13; 7-d Larval Weight ([3]; 11000 μg/g): 8.82 ± 2.22 mg; mortality at 7000 µg/g [3, 4]: 18.8%; mortality at 8000 µg/g [3, 4]: 26%; mortality at 9000 µg/g [3, 4]: 40.6%; mortality at 10000 µg/g [3, 4]: 42.7%; mortality at 11000 µg/g [3, 4]: 59.4%; LC50 (95% FL) ([3]; in diet): 10364 µg/g; level in artificial diet at which toxicity is exhibited ([3]; in vivo): about 1%; inhibition of larval growth ([3]; in words): significantly inhibited larval growth at relatively high concentrations; Relative Growth Index (RGI) vs log concentration regression (FIG. 4) ([3]; log (μg/g)): y=7.68-1.83*log(x), r^2 =0.86; concentration significantly reducing larval weight and development ([3]; lowest concentration, in diet): ≥ 7000 µg/g
